The source of these data is patent US20050106262A1, “Pharmaceutical composition comprising arsenite for the treatment of malignancy” (Korea Microbiological Laboratories, Ltd., priority 2002, published 2005).

In one experiment the test system is DLD1. As to the kind of experiment: modified propidium iodide cytotoxicity assay, colon tumour cell line. The conditions noted are these: Colon tumour cell line DLD1, 4 days of incubation. In kind it is cell-based, human. Here is the method:
(§1) Various human tumor cells were grown at 37° C. in a humidified atmosphere (95% air, 5% CO2) in monolayer cultures in RPMI 1640 medium with phenol red (Life Technologies, Karlsruhe, Germany) supplemented with 10% fetal calf serum. Cells were trypsinized and maintained weekly.
(§2) A modified propidium iodide assay (based on W. A. Dengler et. al, Anti-Cancer Drugs, 6, pp. 522-532 (1995)) was used to examine the antiproliferative activity of the study compounds. Briefly, cells will be harvested from exponential phase cultures growing in RPMI 1640 medium supplemented with 10% fetal calf serum by trypsination, counted and plated in 96 well flat-bottomed microtiter plates (140 μl cell suspension, 8×10^4 cells/ml). […] After thawing of the plates, fluorescence was measured using a Millipore Cytofluor 2350-microplate reader (excitation 530 nm, emission 620 nm) in order to quantify the total cell number. […]
(§3) Growth inhibition is expressed as Treated/Control×100 (or T/C %). IC50 and IC70 values were determined by plotting compound concentration versus cell number. Mean IC50 and IC70 values were calculated according to the formula: [formula]
(§4) With x=specific tumor cell line and n=total number of cell lines studied. If IC50 or IC70 could not be determined within the examined dose range, the lowest or highest concentration studied was used for the calculation.

For the next experiment, the system named is promyelocytic leukaemia. Nature of the experiment: modified propidium iodide cytotoxicity assay, promyelocytic leukaemia (comparison). In kind it is cell-based, human. Here is the method:
as §1, §2, §3, §4

The next experiment concerns RXF486L. As to the kind of experiment: modified propidium iodide cytotoxicity assay, renal tumour cell line. The following applies: 4 days of incubation. The experiment is classed as cell-based, human. Here is the method: as §1, §2, §3, §4
The next experiment concerns OVCAR3. Nature of the experiment: modified propidium iodide cytotoxicity assay, ovarian tumour cell line. The experiment is classed as cell-based, human. The following applies: Ovarian tumour cell line OVCAR3, 4 days of incubation. Here is the method:
as §1, §2, §3, §4

Another experiment has as its system PC3. As to the kind of experiment: modified propidium iodide cytotoxicity assay, prostate tumour cell line. The experiment is classed as cell-based, human. The conditions noted are these: Prostate tumour cell line PC3, 4 days of incubation. Here is the method: as §1, §2, §3, §4
The test system of another experiment is MXAF401NL. Nature of the experiment: modified propidium iodide cytotoxicity assay, mammary tumour cell line. In kind it is cell-based, human. The conditions noted are these: 4 days of incubation. How it is done: as §1, §2, §3, §4
The subject of the next experiment is GXF251L. Nature of the experiment: modified propidium iodide cytotoxicity assay, gastric tumour cell line. The experiment is classed as cell-based, human. The conditions noted are these: 4 days of incubation. Here is the method:
as §1, §2, §3, §4

The next experiment has as its system Ehrlich ascites tumour. The following applies: cited from earlier work.

In general, IC70 refers to the concentration needed for an effect of 70%. For the substance “salt of meta-arsenite (AsO2^−) [meta-arsenite compound]”, the 70% effect concentration (IC70) in the experiment with DLD1 was determined as 0.48 µg/mL; in the experiment on promyelocytic leukaemia (promyelocytic leukaemia, comparison), 6.82 µg/mL; in the experiment with RXF486L, 0.63 µg/mL; in the experiment on OVCAR3, 3.02 µg/mL; in the experiment with PC3 it was 0.85 µg/mL; with MXAF401NL it was 0.32 µg/mL. The IC70 in the experiment on GXF251L is 3.08 µg/mL. In the experiment with promyelocytic leukaemia (ratio of IC70 values, solid tumour cells versus promyelocytic leukaemia), the “sensitivity of the Table I tumour cells relative to promyelocytic leukaemia” value was in the range of 2 to 20 times.

For Potassium arsenite, the “effect on tumour growth” value with Ehrlich ascites tumour is “affected only the growth of Ehrlich ascites tumour”.
